From PubChem BioAssay (NCI)
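Growth conditions: 96-well plates. Treatment: test compound, 48 hours, 5 concentrations. Analysis: linear interpolation between bracketing concentrations; unreached endpoints set to highest concentration. Definition used: TGI = concentration required for complete inhibition of growth.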

Columns and labels:
Test in all cases: inhibition of tumour cell growth, NCI panel, 48 h
[1] = system: MDA-MB-231 breast
[2] = system: SK-MEL-2 melanoma
[3] = system: UO-31 renal
[4] = system: SF-268 CNS
[5] = system: EKVX NSCLC
[6] = system: HCT-116 colon
[7] = system: DU-145 prostate
[8] = system: KM12 colon
[9] = system: HOP-62 NSCLC
[10] = system: SK-MEL-28 melanoma
[11] = system: NCI-H226 lung
[12] = system: IGROV1 ovarian
[13] = system: OVCAR-4 ovarian
[14] = system: A498 renal
[15] = system: TK-10 renal
[16] = system: K-562 leukemia
[17] = system: MCF7 breast
[18] = system: SN12C renal
[19] = system: MALME-3M melanoma
[20] = system: SW-620 colon
[21] = system: HT29 colon
[22] = system: COLO 205 colon
[23] = system: SF-295 CNS
[24] = system: MDA-N
[25] = system: SF-539 CNS
[26] = system: CAKI-1 renal
[27] = system: U251 CNS
[28] = system: OVCAR-3 ovarian
[29] = system: UACC-62 melanoma
[30] = system: HCT-15 colon
[31] = system: BT-549 breast
[32] = system: NCI/ADR-RES ovarian
[33] = system: LOX IMVI melanoma
[34] = system: A549 NSCLC
[35] = system: PC-3 prostate
[36] = system: SNB-75 CNS
[37] = system: ACHN renal
[38] = system: UACC-257 melanoma
[39] = system: NCI-H460 lung
[40] = system: MOLT-4 leukemia
[41] = system: NCI-H23 lung
[42] = system: 786-0 renal
[43] = system: HS 578T breast
[44] = system: SNB-19 CNS
[45] = system: OVCAR-8 ovarian
[46] = system: SK-OV-3 ovarian
[47] = system: HCC-2998 colon
[48] = system: RPMI-8226 leukemia
[49] = system: M14 melanoma
[50] = system: OVCAR-5 ovarian
[51] = system: T-47D breast
[52] = system: SK-MEL-5 melanoma
[53] = system: MDA-MB-435
[54] = system: SR leukemia
[55] = system: HOP-92 NSCLC
[56] = system: RXF 393 renal
[57] = system: NCI-H522 lung
[58] = system: CCRF-CEM leukemia
[59] = system: HL-60(TB) leukemia

CCOc1nc2sc3c(c2c(=O)n1CCSSCCn1c(OCC)nc2sc4c(c2c1=O)CCCC4)CCCC3
TGI [1]: > 100 µM
TGI [2]: > 100 µM
TGI [3]: > 100 µM
TGI [4]: > 100 µM
TGI [5]: > 100 µM
TGI [6]: > 100 µM
TGI [7]: > 100 µM
TGI [8]: > 100 µM
TGI [9]: > 100 µM
TGI [10]: > 100 µM
TGI [11]: > 100 µM
TGI [12]: > 100 µM
TGI [13]: > 100 µM
TGI [14]: > 100 µM
TGI [15]: > 100 µM
TGI [16]: > 100 µM
TGI [17]: > 100 µM
TGI [18]: > 100 µM
TGI [19]: > 100 µM
TGI [20]: > 100 µM
TGI [21]: > 100 µM
TGI [22]: > 100 µM
TGI [23]: > 100 µM
TGI [24]: > 100 µM
TGI [25]: > 100 µM
TGI [26]: > 100 µM
TGI [27]: > 100 µM
TGI [28]: > 100 µM
TGI [29]: > 100 µM
TGI [30]: > 100 µM
TGI [31]: > 100 µM
TGI [32]: > 100 µM
TGI [33]: > 100 µM
TGI [34]: > 100 µM
TGI [35]: > 100 µM
TGI [36]: > 100 µM
TGI [37]: > 100 µM
TGI [38]: > 100 µM
TGI [39]: > 100 µM
TGI [40]: > 100 µM
TGI [41]: > 100 µM
TGI [42]: > 100 µM
TGI [43]: > 100 µM
TGI [44]: > 100 µM
TGI [45]: > 100 µM
TGI [46]: > 100 µM
TGI [47]: > 100 µM
TGI [48]: > 100 µM
TGI [49]: > 100 µM
TGI [50]: > 100 µM
TGI [51]: > 100 µM
TGI [52]: > 100 µM
TGI [53]: > 100 µM
TGI [54]: > 100 µM

Nc1ncnc2c1ncn2CCCCC(=O)O
TGI [1]: > 100 µM
TGI [2]: > 100 µM
TGI [3]: > 100 µM
TGI [4]: > 100 µM
TGI [5]: > 100 µM
TGI [6]: > 100 µM
TGI [7]: > 100 µM
TGI [8]: > 100 µM
TGI [9]: > 100 µM
TGI [10]: > 100 µM
TGI [11]: > 100 µM
TGI [12]: > 100 µM
TGI [13]: > 100 µM
TGI [14]: > 100 µM
TGI [15]: > 100 µM
TGI [55]: > 100 µM
TGI [16]: > 100 µM
TGI [17]: > 100 µM
TGI [18]: > 100 µM
TGI [19]: > 100 µM
TGI [20]: > 100 µM
TGI [21]: > 100 µM
TGI [22]: > 100 µM
TGI [23]: > 100 µM
TGI [24]: > 100 µM
TGI [25]: > 100 µM
TGI [26]: > 100 µM
TGI [27]: > 100 µM
TGI [28]: > 100 µM
TGI [29]: > 100 µM
TGI [30]: > 100 µM
TGI [31]: > 100 µM
TGI [32]: > 100 µM
TGI [56]: > 100 µM
TGI [33]: > 100 µM
TGI [34]: > 100 µM
TGI [35]: > 100 µM
TGI [36]: > 100 µM
TGI [37]: > 100 µM
TGI [38]: > 100 µM
TGI [39]: > 100 µM
TGI [40]: > 100 µM
TGI [41]: > 100 µM
TGI [42]: > 100 µM
TGI [43]: > 100 µM
TGI [44]: > 100 µM
TGI [45]: > 100 µM
TGI [46]: > 100 µM
TGI [57]: > 100 µM
TGI [47]: > 100 µM
TGI [48]: > 100 µM
TGI [49]: > 100 µM
TGI [50]: > 100 µM
TGI [51]: > 100 µM
TGI [52]: > 100 µM
TGI [53]: > 100 µM
TGI [54]: > 100 µM

CC(=O)N1N=C(c2ccc3ccccc3c2O)CC1c1ccc(N(C)C)cc1 (configuration not stated)
TGI [1]: > 100 µM
TGI [2]: > 100 µM
TGI [3]: > 100 µM
TGI [4]: > 100 µM
TGI [6]: > 100 µM
TGI [7]: > 100 µM
TGI [8]: > 100 µM
TGI [9]: > 100 µM
TGI [10]: > 100 µM
TGI [11]: > 100 µM
TGI [12]: > 100 µM
TGI [13]: > 100 µM
TGI [14]: > 100 µM
TGI [15]: > 100 µM
TGI [55]: > 100 µM
TGI [16]: > 100 µM
TGI [17]: > 100 µM
TGI [18]: > 100 µM
TGI [19]: > 100 µM
TGI [20]: > 100 µM
TGI [21]: > 100 µM
TGI [22]: > 100 µM
TGI [23]: > 100 µM
TGI [24]: > 100 µM
TGI [25]: > 100 µM
TGI [26]: > 100 µM
TGI [27]: > 100 µM
TGI [28]: > 100 µM
TGI [29]: > 100 µM
TGI [58]: > 100 µM
TGI [30]: > 100 µM
TGI [31]: > 100 µM
TGI [32]: > 100 µM
TGI [56]: > 100 µM
TGI [34]: > 100 µM
TGI [35]: > 100 µM
TGI [36]: > 100 µM
TGI [37]: > 100 µM
TGI [38]: > 100 µM
TGI [39]: > 100 µM
TGI [40]: > 100 µM
TGI [41]: > 100 µM
TGI [42]: > 100 µM
TGI [43]: > 100 µM
TGI [45]: > 100 µM
TGI [46]: > 100 µM
TGI [57]: > 100 µM
TGI [47]: > 100 µM
TGI [48]: > 100 µM
TGI [49]: > 100 µM
TGI [50]: > 100 µM
TGI [51]: > 100 µM
TGI [52]: > 100 µM
TGI [53]: > 100 µM
TGI [54]: > 100 µM

c1cc2c3ccsc3c3sccc3c2s1
TGI [1]: > 100 µM
TGI [2]: > 100 µM
TGI [3]: > 100 µM
TGI [4]: > 100 µM
TGI [5]: > 100 µM
TGI [6]: > 100 µM
TGI [7]: > 100 µM
TGI [8]: > 100 µM
TGI [9]: 70.5 µM
TGI [10]: > 100 µM
TGI [11]: > 100 µM
TGI [12]: > 100 µM
TGI [13]: > 100 µM
TGI [14]: > 100 µM
TGI [15]: > 100 µM
TGI [55]: > 100 µM
TGI [16]: > 100 µM
TGI [17]: > 100 µM
TGI [18]: > 100 µM
TGI [20]: > 100 µM
TGI [21]: > 100 µM
TGI [22]: > 100 µM
TGI [23]: > 100 µM
TGI [24]: > 100 µM
TGI [25]: > 100 µM
TGI [26]: > 100 µM
TGI [27]: > 100 µM
TGI [28]: > 100 µM
TGI [29]: > 100 µM
TGI [58]: > 100 µM
TGI [30]: > 100 µM
TGI [31]: > 100 µM
TGI [32]: > 100 µM
TGI [56]: > 100 µM
TGI [33]: > 100 µM
TGI [34]: > 100 µM
TGI [35]: > 100 µM
TGI [36]: > 100 µM
TGI [37]: > 100 µM
TGI [38]: > 100 µM
TGI [39]: > 100 µM
TGI [40]: > 100 µM
TGI [41]: > 100 µM
TGI [59]: > 100 µM
TGI [42]: > 100 µM
TGI [43]: 71.8 µM
TGI [45]: > 100 µM
TGI [46]: > 100 µM
TGI [47]: > 100 µM
TGI [48]: > 100 µM
TGI [49]: > 100 µM
TGI [50]: > 100 µM
TGI [51]: > 100 µM
TGI [52]: > 100 µM
TGI [53]: > 100 µM
TGI [54]: > 100 µM
